These results are taken from patent publication US20260240926A1, “METHOD OF MAKING A PROBIOTIC FERMENTED PRODUCT” (UNIVERSITY OF SOUTH FLORIDA, priority 2023, published 2026).

For this data set, the system named is C57BL/6 mice. Kind of data set: Chemotherapy (5-FU) induced dysbiosis model in C57BL/6 mice. To be noted: 5-FU alone. It counts as in vivo. How it is done:
Based on previous studies, a model of chemotherapy induced dysbiosis in C57BL/6 mice using 5-Fluorouracil (5-FU) chemotherapy was established. 5-FU accelerated body weight loss (FIG. 16A), reduced microbiome diversity (FIG. 16B), increased gut permeability (FIG. 16C), damaged intestinal villi in the ileum (FIG. 16D), and impaired cognitive function (FIG. 16E). […] It was determined where the PFM has more significant protective effects compared to non-fermented probiotics (same four strains suspended in saline, instead of fermented in milk).

As for `O=c1[nH]cc(F)c(=O)[nH]1` [5-FU, 5-Fluorouracil], the body weight loss entry is reported as “accelerated”, the cognitive function entry is “impaired”, the “intestinal villi in the ileum” value is given as “damaged” and the microbiome diversity result was “reduced”.
